pIC50: −log10 of the molar value.
Tests used:
RS4;11 cells = experiment: Inhibition of proliferation of RS4;11 human acute lymphocytic leukemia cells (CCK-8); format: cell-based; conditions: 72 h compound exposure, CCK-8, 5% serum
Method: RS4;11 cells (from ATCC) in logarithmic growth phase and good cell condition were added to a centrifuge tube and centrifuged at 1500 rpm for 3 min in a low speed centrifuge. The supernatant was discarded, and 5 mL of complete medium (RPMI basic medium+10% FBS) was added using a pipette for cell resuspension. The cells were counted using a cell counter, diluted with complete medium to a cell density of 2×10^5 cells/mL, and an equivalent amount of RPMI basic medium was added to adjust the serum concentration to 5% and the cell density to 1×10^5 cells/mL for plate seeding. The cells were seeded on a 96-well plate at 100 μL/well using a pipettor, and incubated in an incubator at 37° C., 5% CO2 with saturated humidity. After 24 h of incubation, compounds were loaded using a nanoliter pipettor, 2 duplicate wells were set for each concentration, and cells without compound were used as negative controls. […] Inhibition rate (%)=(mean value of negative control group−mean value of experimental group)/(mean value of negative control group−mean value of blank group)×100%. A dose-response curve was fitted by four-parameter analysis, with the logarithm of compound concentration serving as abscissa and inhibition rate serving as ordinate, so that IC50 was calculated (Table 1).

BCL-2/BAK = target: T1, BCL-2/BAK (Homo sapiens, UniProt P10415); experiment: Inhibitory activity for BCL-2/BAK binding (Cisbio BCL-2/BAK (BH3) binding assay kit)
T1 construct: purchased Cisbio 63ADK000CB01PEG
T1 sequence (P10415 whole entry): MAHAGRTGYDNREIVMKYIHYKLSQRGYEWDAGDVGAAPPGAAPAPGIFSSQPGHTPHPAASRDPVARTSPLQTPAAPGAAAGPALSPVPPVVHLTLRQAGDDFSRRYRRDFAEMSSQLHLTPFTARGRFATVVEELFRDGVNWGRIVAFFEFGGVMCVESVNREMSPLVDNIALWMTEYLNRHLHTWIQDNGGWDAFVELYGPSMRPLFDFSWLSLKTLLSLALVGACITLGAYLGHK
Method: 500 nM Tag1-BCL-2 protein stock solution and 20 μM Tag2-BAK protein stock solution were diluted to 5 nM and 120 nM respectively with dilution buffer in kit (name: BCL-2/BAK (BH3) BINDING ASSAY KITS, cat. No.: 63ADK000CB01PEG, from Cisbio). 5 μL of Tag1-BCL-2 protein diluent was added to each well, then test compounds dissolved with DMSO were added to the wells with a nanoliter pipettor, allowing the final compound concentrations to be 200 nM to 0.0488 nM (4-fold gradient for 7 concentrations in total). Blank control wells (without enzyme) and negative control wells (with enzyme, plus vehicle DMSO) were set, and 2 replicate wells were set. Finally, 5 μL of Tag2-BAK protein diluent was added to each well, and the mixture was mixed well by centrifugation and incubated at 25° C. for 15 min. 100× anti-Tag1-Eu^3+ and 100× anti-Tag2-XL665 were both diluted to 1× working concentration with the detection buffer in the kit. Anti-Tag1-Eu^3+ and anti-Tag2-XL665 were mixed well in a 1:1 ratio, and the mixture was added to wells at 5 μL/well, and incubated at 25° C. for 2 h or more. The plate was read using a PE Envision multi-functional microplate reader ([…], emission: 665 nm) and IC50 (shown in Table 2) was calculated by four-parameter fitting.

BCL-XL/BAK = target: T2, BCL-XL/BAK (Homo sapiens, UniProt Q07817); experiment: Inhibitory activity for BCL-XL/BAK binding (Cisbio BCL-XL/BAK (BH3) binding assay kit)
T2 construct: purchased Cisbio 63ADK000CB04PEG
T2 sequence (Q07817 whole entry): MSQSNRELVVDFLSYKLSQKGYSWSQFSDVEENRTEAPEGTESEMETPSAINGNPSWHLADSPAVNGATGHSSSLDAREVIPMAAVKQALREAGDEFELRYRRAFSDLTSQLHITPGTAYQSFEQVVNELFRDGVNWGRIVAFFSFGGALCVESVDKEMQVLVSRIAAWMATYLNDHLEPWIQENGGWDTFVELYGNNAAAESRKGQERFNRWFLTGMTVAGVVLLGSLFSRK
Method: 300 nM Tag1-BCL-XL protein stock solution and 10 μM Tag2-BAK protein stock solution were diluted to 2 nM and 80 nM respectively with dilution buffer in kit (name: BCL-XL/BAK (BH3) BINDING ASSAY KITS, cat. No.: 63ADK000CB04PEG, from Cisbio). 5 μL of Tag1-BCL-XL protein diluent was added to each well, then different test compounds dissolved with DMSO were added to the wells with a nanoliter pipettor, allowing the final compound concentrations to be 2000 nM to 0.488 nM (4-fold gradient for 7 concentrations in total). Blank control wells (without enzyme) and negative control wells (with enzyme, plus vehicle DMSO) were set, and 2 replicate wells were set. Finally, 5 μL of Tag2-BAK protein diluent was added to each well, and the mixture was mixed well by centrifugation and incubated at 25° C. for 15 min. 100× anti-Tag1-Eu^3+ and 100× anti-Tag2-XL665 were both diluted to 1× working concentration with the detection buffer in the kit. Anti-Tag1-Eu^3+ and anti-Tag2-XL665 were mixed well in a 1:1 ratio, and the mixture was added to wells at 5 μL/well, and incubated at 25° C. for 2 h or more. The plate was read using a PE Envision multi-functional microplate reader ([…], emission: 665 nm) and IC50 (shown in Table 2) was calculated by four-parameter fitting.

[1] = test system: RS4;11 human acute lymphoblastic leukemia subcutaneous xenograft tumors; experiment: RS4;11 human acute lymphoblastic leukemia mouse subcutaneous tumor xenograft model; format: in vivo, NOD/SCID mice; conditions: 25 mg/kg single intragastric dose; Day 12 after the end of administration
Method: SPF female NOD/SCID mice (Shanghai Lingchang Biotech Co., Ltd.) were inoculated subcutaneously at the right side armpit with 1×10^7 RS4;11 cells (ATCC). When the mean tumor volume reached about 180 mm^3, the mice were divided into 3 groups according to the tumor size: vehicle, compound 1-1 (25 mg/kg) and compound 3-1 (25 mg/kg). The day of grouping was determined as d0. On d1, a single intragastric dose at a volume of 10 mL/kg was administered, and the animals were observed.
The calculation formula for tumor volume: Tumor volume (mm^3)=½×(a×b^2) (where a represents long diameter and b represents short diameter).
Relative tumor proliferation rate (T/C %) refers to the percentage of the relative tumor volume or tumor weight of the treatment and control groups at a certain time point. The calculation formula is as follows: T/C %=TRTV/CRTV×100% (TRTV: mean relative tumor volume (RTV) for treatment group; CRTV: mean RTV for vehicle control group; RTV=TVt/TV0, where TV0 is the tumor volume at grouping, TVt is the tumor volume after treatment).
Tumor growth inhibition rate (TGI %) is calculated according to the following formula: TGI %=(1−T/C)×100%. (T and C are the relative tumor volume (RTV) or tumor weight (TW) at a particular time point for the treatment and control groups, respectively).
The calculation formula for weight change rate (WCR) (%) is: WCR=(Wtt−Wt0)/Wt0×100%, where Wt0 is the body weight of the animal at grouping (i.e., d0), Wtt is the body weight of the animal at each measurement.
All experimental results are expressed as mean±SD (mean±standard deviation). The relative tumor volume of the treatment group was compared with that of the control group for any significant difference by T tests, wherein p<0.05 indicates a significant difference, and p<0.01 indicates a very significant difference.

Structure (SMILES) | pIC50 (RS4;11 cells) | pIC50 (BCL-2/BAK) | pIC50 (BCL-XL/BAK) | Relative tumor volume (mean ± SD) [1] | T/C [1] | TGI [1] | Tumor volume (mean ± SD) [1] | Weight change rate (mean ± SD) [1]
Cc1cc(C(F)(F)F)ccc1C1=C(CN2CCN(c3ccc(C(=O)NS(=O)(=O)c4ccc(NC[C@H]5CN(S(C)(=O)=O)CCO5)c([N+](=O)[O-])c4)c(Oc4cnc5[nH]ccc5c4)c3)CC2)CCC(C)(C)C1 [Compound 22-1, (S)-4-(4-{[2-(2-methyl-4-trifluoromethylphenyl)-4,4-dimethylcyclohex-1-enyl]methyl}-piperazin-1-yl)-N-({3-nitro-4-[((4-(methylsulfonyl)morpholin-2-yl)methyl)amino]phenyl}sulfonyl)-2-(1H-pyrrolo[2,3-b]pyridin-5-yloxy)-benzamide] | 8.66 | 8.88 | 6.98 |  |  |  |  | 
Cc1cc(C(F)(F)F)ccc1C1=C(CN2CCN(c3ccc(C(=O)NS(=O)(=O)c4ccc(NC[C@H]5COCCO5)c([N+](=O)[O-])c4)c(Oc4cnc5[nH]ccc5c4)c3)CC2)CCC(C)(C)C1 [Compound 3-1] | 8.72 | 8.83 |  | 1.3 ± 0.8 | 25.0% | 75.0% | 213 ± 93 mm^3 | 5.61 ± 3.61%
Cc1cc(C(F)(F)F)ccc1C1=C(CN2CCN(c3ccc(C(=O)NS(=O)(=O)c4ccc(NC[C@H]5CCCOC5)c([N+](=O)[O-])c4)c(Oc4cnc5[nH]ccc5c4)c3)CC2)CCC(C)(C)C1 [Compound 15-1, (R)-4-(4-{[2-(2-methyl-4-trifluoromethylphenyl)-4,4-dimethylcyclohex-1-enyl]methyl}-piperazin-1-yl)-N-({3-nitro-4-[((tetrahydropyran-3-yl)methyl)amino]phenyl}sulfonyl)-2-(1H-pyrrolo[2,3-b]pyridin-5-yloxy)-benzamide] |  | 8.82 | 6.58 |  |  |  |  | 
Cc1cc(C(F)(F)F)ccc1C1=C(CN2CCN(c3ccc(C(=O)NS(=O)(=O)c4ccc(NC[C@@H]5CN(C(=O)C(C)C)CCO5)c([N+](=O)[O-])c4)c(Oc4cnc5[nH]ccc5c4)c3)CC2)CCC(C)(C)C1 [Compound 21-1, (R)-4-(4-{[2-(2-methyl-4-trifluoromethylphenyl)-4,4-dimethylcyclohex-1-enyl]methyl}-piperazin-1-yl)-N-({3-nitro-4-[((4-isobutyrylmorpholin-2-yl)methyl)amino]phenyl}sulfonyl)-2-(1H-pyrrolo[2,3-b]pyridin-5-yloxy)-benzamide] | 8.26 | 9.14 | 6.94 |  |  |  |  | 
Cc1cc(C(F)(F)F)ccc1C1=C(CN2CCN(c3ccc(C(=O)NS(=O)(=O)c4ccc(NC[C@@H]5CCOC5)c([N+](=O)[O-])c4)c(Oc4cnc5[nH]ccc5c4)c3)CC2)CCC(C)(C)C1 [Compound 10-1, (S)-4-(4-{[2-(2-methyl-4-trifluoromethylphenyl)-4,4-dimethylcyclohex-1-enyl]methyl}-piperazin-1-yl)-N-({3-nitro-4-[((tetrahydrofuran-3-yl)methyl)amino]phenyl}sulfonyl)-2-(1H-pyrrolo[2,3-b]pyridin-5-yloxy)-benzamide] |  | 8.96 | 6.99 |  |  |  |  | 
Cc1cc(C(F)(F)F)ccc1C1=C(CN2CCN(c3ccc(C(=O)NS(=O)(=O)c4ccc(NC[C@@H]5CCCOC5)c([N+](=O)[O-])c4)c(Oc4cnc5[nH]ccc5c4)c3)CC2)CCC(C)(C)C1 [Compound 16-1, (S)-4-(4-{[2-(2-methyl-4-trifluoromethylphenyl)-4,4-dimethylcyclohex-1-enyl]methyl}-piperazin-1-yl)-N-({3-nitro-4-[((tetrahydropyran-3-yl)methyl)amino]phenyl}sulfonyl)-2-(1H-pyrrolo[2,3-b]pyridin-5-yloxy)-benzamide] |  | 8.68 | 6.84 |  |  |  |  | 
Cc1cc(C(F)(F)F)ccc1C1=C(CN2CCN(c3ccc(C(=O)NS(=O)(=O)c4ccc(NCC5CCOCC5)c([N+](=O)[O-])c4)c(Oc4cnc5[nH]ccc5c4)c3)CC2)CCC(C)(C)C1 [Compound 1-1, 4-(4-{[2-(2-methyl-4-trifluoromethylphenyl)-4,4-dimethylcyclohex-1-enyl]methyl}-piperazin-1-yl)-N-({3-nitro-4-[(tetrahydro-2H-pyran-4-ylmethyl)amino]phenyl}sulfonyl)-2-(1H-pyrrolo[2,3-b]pyridin-5-yloxy)-benzamide] | 8.41 |  |  | 2.1 ± 0.6 | 40.4% | 59.6% | 350 ± 80 mm^3 | 8.20 ± 3.58%
Cc1cc(C(F)(F)F)ccc1C1=C(CN2CCN(c3ccc(C(=O)NS(=O)(=O)c4ccc(NC[C@H]5CCOC5)c([N+](=O)[O-])c4)c(Oc4cnc5[nH]ccc5c4)c3)CC2)CCC(C)(C)C1 [Compound 9-1, (R)-4-(4-{[2-(2-methyl-4-trifluoromethylphenyl)-4,4-dimethylcyclohex-1-enyl]methyl}-piperazin-1-yl)-N-({3-nitro-4-[((tetrahydrofuran-3-yl)methyl)amino]phenyl}sulfonyl)-2-(1H-pyrrolo[2,3-b]pyridin-5-yloxy)-benzamide] |  | 8.90 | 6.66 |  |  |  |  | 
